Five compounds from ChEMBL document CHEMBL5528027, “Target identification, and optimization of dioxygenated amide derivatives as potent antibacterial agents with FabH inhibitory activity” (Eur J Med Chem, 2024) can be followed below.

The test system of data set [1] is Escherichia coli. Briefly: Antibacterial activity against Escherichia coli assessed as reduction in bacterial growth measured after 24 hrs by two-fold serial dilution method. The class given is functional.
Data set [2] deals with Pseudomonas aeruginosa. The data set is described as follows: Antibacterial activity against Pseudomonas aeruginosa assessed as reduction in bacterial growth measured after 24 hrs by two-fold serial dilution method. Format: functional.
Data set [3] deals with Bacillus subtilis. Briefly: Antibacterial activity against Bacillus subtilis assessed as reduction in bacterial growth measured after 24 hrs by two-fold serial dilution method. Format: functional.
Data set [4] deals with Staphylococcus aureus. Briefly: Antibacterial activity against Staphylococcus aureus assessed as reduction in bacterial growth measured after 24 hrs by two-fold serial dilution method. The class given is functional.
The subject of data set [5] is Klebsiella pneumoniae. Briefly: Antibacterial activity against Klebsiella pneumoniae assessed as reduction in bacterial growth measured after 24 hrs by two-fold serial dilution method. Format: functional.
Data set [6] has as its system Streptococcus pneumoniae. Briefly: Antibacterial activity against Streptococcus pneumoniae assessed as reduction in bacterial growth measured after 24 hrs by two-fold serial dilution method. Format: functional.
Data set [7] deals with T1, Beta-ketoacyl-[acyl-carrier-protein] synthase III (Escherichia coli K-12, UniProt P0A6R0).
T1 sequence (P0A6R0 whole entry): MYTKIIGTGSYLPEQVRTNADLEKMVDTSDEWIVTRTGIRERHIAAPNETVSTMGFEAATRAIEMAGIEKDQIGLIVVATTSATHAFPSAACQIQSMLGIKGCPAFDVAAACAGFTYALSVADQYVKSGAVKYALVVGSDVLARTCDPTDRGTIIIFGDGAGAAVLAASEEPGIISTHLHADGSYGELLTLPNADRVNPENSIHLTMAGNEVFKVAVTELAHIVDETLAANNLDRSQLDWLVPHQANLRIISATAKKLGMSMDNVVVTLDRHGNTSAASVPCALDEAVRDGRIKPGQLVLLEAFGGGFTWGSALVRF
The data set is described as follows: Inhibition of Escherichia coli FabH.

Data set [8] concerns Erythrocyte. The data set is described as follows: Hemolytic activity in human erythrocytes assessed as hemolysis by spectrophotometric analysis. The class given is toxicity, cell-based.
A short description of data set [9]: Cytotoxicity against mouse NIH3T3 cells incubated for 24 hrs by MTT analysis. The class given is toxicity, cell-based.
In data set [10] the target is T1, Beta-ketoacyl-[acyl-carrier-protein] synthase III. The data set is described as follows: Binding affinity to Escherichia coli FabH assessed as dissociation constant by Isothermal titration calorimetry method. A general note: Isothermal titration calorimetry measures the heat released or taken up as one component is titrated into another.
In data set [11] the target is T2, Beta-ketoacyl-[acyl-carrier-protein] synthase III (Escherichia coli K-12) (UniProt P0A6R0).
T2 sequence (whole entry): T1 sequence (P0A6R0 whole entry)
The data set is described as follows: Binding affinity to Escherichia coli FabH assessed as change in enthalpy by Isothermal titration calorimetry method.

The target in data set [12] is T2, Beta-ketoacyl-[acyl-carrier-protein] synthase III (Escherichia coli K-12). The data set is described as follows: Binding affinity to Escherichia coli FabH assessed as change in entropy by Isothermal titration calorimetry method.
The target is the same in data set [13]. Briefly: Binding affinity to Escherichia coli FabH assessed as change in Gibbs free energy by Isothermal titration calorimetry method.
Data set [14] concerns Staphylococcus aureus. Briefly: In vivo antibacterial activity against Staphylococcus aureus infected in Sprague-Dawley rat skin infection model assessed in shrink of wound area measured after 3 days. The class given is functional, organism-based. Particulars: time 3.0 day.
Data set [15] has as its system Staphylococcus aureus. Briefly: In vivo antibacterial activity against Staphylococcus aureus infected in Sprague-Dawley rat skin infection model assessed in reduction of wound exudation measured after 3 days. To be noted: time 3.0 day. Format: functional, organism-based.
Data set [16] has as its system Staphylococcus aureus. Briefly: In vivo antibacterial activity against Staphylococcus aureus infected in Sprague-Dawley rat skin infection model assessed in reduction of wound pus measured after 3 days. The class given is functional, organism-based. Particulars: time 3.0 day.
In data set [17] the test system is Staphylococcus aureus. The data set is described as follows: In vivo antibacterial activity against Staphylococcus aureus infected in Sprague-Dawley rat skin infection model assessed in reduction of wound size measured after 6 days. Format: functional, organism-based. To be noted: time 6.0 day.
The subject of data set [18] is Staphylococcus aureus. Briefly: In vivo antibacterial activity against Staphylococcus aureus infected in Sprague-Dawley rat skin infection model assessed in wound healing measured after 10 days (reference value: 70.8%). Format: functional. Particulars: time 10 day.
Data set [19] relates to Staphylococcus aureus. Briefly: In vivo antibacterial activity against Staphylococcus aureus infected in Sprague-Dawley rat skin infection model assessed in decrease in number of inflammatory cells within wound tissue measured after 3 to 10 days by H and E staining based analysis. Format: functional, organism-based. To be noted: time 3-10 day.

pIC50, pKd: −log10 of the molar value. Values after ≈ are worked out from the molar mass of the structure shown. Active and inactive are the calls of the source. The calls are words filed in the database; no cut-off is given here.

Take `COC(=O)c1c[nH]c2cc(NC(=O)c3ccc4c(c3)OCCCO4)ccc12`: the MIC in data set [1] was determined as 1.56 µg/mL (≈ 4.26 µM); in data set [2], 1.56 µg/mL (≈ 4.26 µM); in [3] it was 3.13 µg/mL (≈ 8.54 µM); in [4], 3.13 µg/mL (≈ 8.54 µM); in data set [5] it was 1.56 µg/mL (≈ 4.26 µM); in data set [6] it was 6.25 µg/mL (≈ 17.1 µM). In data set [7], this compound gave a pIC50 of 5.70. Also, in [8], the HC30 is > 10 µg/mL. The IC50 at 24 h in data set [9] came out at 142 µM. Besides, in data set [10], the pKd is 4.67. Moreover, the deltaH in [11] was -80 kcal/mol. The TdeltaS in data set [12] was -73.6 kcal/mol. Moreover, in data set [13], the deltaG is -6.4 kcal/mol. The result in [14], in data set [15], in data set [16], in [17] and in data set [19] was Active. Also, in data set [18], the Activity is 94%.
Regarding `CCOC(=O)c1cccnc1NC(=O)c1ccc2c(c1)OCCCO2`, the MIC in data set [1] was 6.25 µg/mL (≈ 18.3 µM); in [2], 12.5 µg/mL (≈ 36.5 µM); in [3], 25 µg/mL (≈ 73 µM); in [4] it was 25 µg/mL (≈ 73 µM); in data set [5], 25 µg/mL (≈ 73 µM); in [6] it was 25 µg/mL (≈ 73 µM). In data set [7], this compound showed a pIC50 of 4.57. Further, the HC30 in data set [8] was > 10 µg/mL. This compound also returned an IC50 at 24 h in [9] of 147 µM.
Consider `CC(=O)c1cccnc1NC(=O)c1ccc2c(c1)OCCCO2`, for which the MIC was 6.25 µg/mL (≈ 20 µM) in data set [1]; > 100 µg/mL in data set [2]; 50 µg/mL (≈ 160 µM) in data set [3]; 50 µg/mL (≈ 160 µM) in data set [4]; 25 µg/mL (≈ 80 µM) in data set [5]; > 100 µg/mL in [6]. Moreover, the pIC50 in data set [7] was 4.33. The HC30 in [8] is > 10 µg/mL. Further, in [9], 128 µM corresponded to half-maximal inhibition (IC50 at 24 h).
On to `CN1CCN(C(=O)c2ccc3c(c2)OCCCO3)CC1`, for which the MIC in data set [1] was 6.25 µg/mL (≈ 22.6 µM); in data set [2], 3.13 µg/mL (≈ 11.3 µM); in data set [3], 6.25 µg/mL (≈ 22.6 µM); in data set [4], 3.13 µg/mL (≈ 11.3 µM); in data set [5] it was 6.25 µg/mL (≈ 22.6 µM); in [6] it was 12.5 µg/mL (≈ 45.2 µM). This compound showed a negative logarithm of the IC50 (pIC50) in data set [7] of 4.42. Also, the HC30 in [8] was > 10 µg/mL. Moreover, in [9], the IC50 at 24 h was found to be 175 µM.
As for `COC(=O)c1cccc(-c2ccc(NC(=O)c3ccc4c(c3)OCCCO4)cc2)c1`, the MIC in data set [1] is 12.5 µg/mL (≈ 31 µM); in [2] it was 50 µg/mL (≈ 124 µM); in data set [3] it was 50 µg/mL (≈ 124 µM); in data set [4], 50 µg/mL (≈ 124 µM); in [5], 50 µg/mL (≈ 124 µM); in data set [6] it was > 100 µg/mL. In data set [7], this compound had a pIC50 of 4.71. The HC30 in [8] was > 10 µg/mL. Besides, it took 161 µM to reach half-maximal inhibition in data set [9] (IC50 at 24 h).

What is called MIC is the least concentration at which growth counts as inhibited. The pIC50 is −log10 of the IC50, conventionally taken in molar units. A higher pIC50 goes with a small IC50. Usually IC50 stands for the concentration that inhibits the measured activity by half. As usually defined, the pKd is the negative decadic logarithm of the Kd, by convention in mol/L.
